How the values were obtained:
Format in all cases: in vivo
[1] = tested on: Matricaria inodora (MATIN); assay: A. Herbicidal pre-emergence efficacy, MATIN
Outline: (§1)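 Applied before emergence onto covering soil at rates of 1280 g/ha or less, using 600 L/ha spray water with 0.5% additive. Scoring: visual % efficacy after ~3 weeks, greenhouse.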

[2] = tested on: Amaranthus retroflexus (AMARE); assay: A. Herbicidal pre-emergence efficacy, AMARE
Outline: as §1

[3] = tested on: Echinochloa crus-galli (ECHCG); assay: B. Herbicidal post-emergence efficacy, ECHCG; settings: rated visually after about 3 weeks
Outline: (§2)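 Post-emergence greenhouse test: one-leaf-stage plants, compound (WP/EC, +0.5% additive, 600 L/ha water, ≤1280 g/ha) applied to green parts; % efficacy scored visually vs untreated after ~3 wk; 100% = plants died.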

[4] = tested on: Kochia scoparia (KCHSC); assay: B. Herbicidal post-emergence efficacy, KCHSC; settings: for Post-emergence efficacy against KCHSC: 1280 g/ha; for Post-emergence efficacy against KCHSC in %: rated visually after about 3 weeks
Outline: as §2

[5] = tested on: Digitaria sanguinalis (DIGSA); assay: C. Herbicidal pre-emergence efficacy, DIGSA; settings: scored after about 3 weeks
Outline: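 Pre-emergence test: formulated compounds sprayed as aqueous suspension or emulsion with 0.5% additive at 600 l/ha onto soil covering sown seeds, at rates corresponding to 320 g/ha or less. After about 3 weeks in greenhouse, efficacy scored visually as percent versus untreated controls (100% = plants dead).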

[6] = tested on: Amaranthus retroflexus (AMARE); assay: E. Herbicidal post-emergence efficacy, AMARE
Outline: (§3)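 Compounds applied at 320 g/ha or less as a foliar spray (600 l/ha, 0.5% additive) to one-leaf-stage greenhouse plants grown in sandy loam. Damage is visually scored in percent relative to untreated plants after about 3 weeks.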

[7] = tested on: Kochia scoparia (KCHSC); assay: E. Herbicidal post-emergence efficacy, KCHSC
Outline: as §3

[8] = tested on: Alopecurus myosuroides (ALOMY); assay: A. Herbicidal pre-emergence efficacy, ALOMY; settings: scored visually after about 3 weeks vs untreated controls
Outline: as §1

[9] = pre-emergence, dosage 1280 g/ha
[10] = 320 g/ha, scored visually after about 3 weeks vs untreated controls

Row | SMILES | Pre-emergence efficacy against MATIN [1, 9] [%] | Pre-emergence efficacy against AMARE in % ([2]; 80 g/ha) [%] | Pre-emergence efficacy against AMARE in % ([2]; 320 g/ha) [%] | Pre-emergence efficacy against AMARE in % ([2]; 1280 g/ha) [%] | Post-emergence efficacy against ECHCG in % ([3]; 1280 g/ha) [%] | Post-emergence efficacy against KCHSC [4] [%] | Pre-emergence efficacy against DIGSA ([5]; 80 g/ha) [%] | Pre-emergence efficacy against DIGSA ([5]; 320 g/ha) [%] | Post-emergence efficacy against AMARE in % ([6]; application rate 80 g/ha) [%] | Post-emergence efficacy against AMARE in % ([6]; application rate 320 g/ha) [%] | Post-emergence efficacy against KCHSC in % ([7]; application rate 80 g/ha) [%] | Post-emergence efficacy against KCHSC in % ([7]; application rate 320 g/ha) [%] | Pre-emergence efficacy against ALOMY ([8]; 1280 g/ha) [%] | Pre-emergence efficacy against MATIN [1, 10] [%] | Post-emergence efficacy against ECHCG in % ([3]; 320 g/ha) [%] | Post-emergence efficacy against KCHSC in % ([4]; 80 g/ha) [%] | Post-emergence efficacy against KCHSC in % ([4]; 320 g/ha) [%] | Pre-emergence efficacy against ALOMY ([8]; 320 g/ha) [%] | Post-emergence efficacy against ECHCG in % ([3]; 80 g/ha) [%]
1 | C=CCCS(=O)(=O)Oc1c(F)cccc1Oc1ncc(Cl)cn1 [Example I-50] | 90 | 90 | 90 | 100 | 90 | 90 | 100 | 100 | 100 | 100 | 80 | 100 | – | – | – | – | – | – | –
2 | O=S(=O)(CC1CC1)Oc1ccccc1Oc1ncc(Cl)cn1 [Example I-23] | 100 | 90 | 100 | 100 | 90 | 100 | 100 | 100 | 100 | 100 | – | – | 90 | 90 | 90 | 100 | 100 | – | –
3 | O=S(=O)(CCC(F)(F)F)Oc1c(Br)cccc1Oc1ncc(Cl)cn1 [Example I-31] | 90 | 100 | 100 | 100 | 100 | 100 | – | – | – | – | – | – | 90 | – | – | 90 | 100 | – | –
4 | O=S(=O)(CCC(F)(F)F)Oc1ccccc1Oc1ncc(Cl)cn1 [Example I-8] | 100 | 90 | 90 | 100 | 100 | 90 | 100 | 100 | 100 | 100 | – | – | 90 | 90 | 90 | 90 | 90 | – | –
5 | CCCS(=O)(=O)Oc1ccccc1Oc1ncc(Cl)cn1 [Example I-3] | 100 | 100 | 100 | 100 | 90 | 90 | – | – | – | 100 | – | – | 100 | 100 | – | 90 | 90 | 90 | –
6 | O=S(=O)(CCCCl)Oc1ccccc1Oc1ncc(F)cn1 [Example I-5] | 100 | 100 | 100 | 100 | 100 | 100 | – | – | 100 | 100 | – | – | 90 | 90 | 100 | 100 | 100 | – | 90
7 | CCCCS(=O)(=O)Oc1ccccc1Oc1ncc(Cl)cn1 [Example I-6] | 100 | 100 | 100 | 100 | 90 | 90 | 100 | 100 | 90 | 100 | – | – | 90 | – | 90 | 90 | 90 | – | –
8 | O=S(=O)(CCCC(F)(F)F)Oc1ccccc1Oc1ncc(Cl)cn1 [Example I-10] | 100 | 100 | 100 | 100 | 100 | 90 | 100 | 100 | 100 | 100 | – | – | 90 | 100 | 100 | 90 | 90 | 90 | 100
9 | O=S(=O)(CCCCl)Oc1c(F)cccc1Oc1ncc(Cl)cn1 [Example I-14] | 100 | 100 | 100 | 100 | 100 | 100 | – | – | 100 | 100 | – | – | 100 | – | 100 | 100 | 100 | 90 | –
10 | O=S(=O)(CCCCl)Oc1ccccc1Oc1ncc(Cl)cn1 [Example I-2] | 100 | 100 | 100 | 100 | 100 | 100 | – | – | 100 | 100 | – | – | 100 | – | 100 | 100 | 100 | 100 | 90
11 | COCCS(=O)(=O)Oc1c(F)cccc1Oc1ncc(Cl)cn1 [Example I-52] | 90 | 90 | 100 | 100 | 90 | – | 80 | 100 | – | 100 | 90 | 100 | – | – | – | – | – | – | –
12 | O=S(=O)(CC1CC1(Cl)Cl)Oc1c(F)cccc1Oc1ncc(Cl)cn1 (stereo not drawn) [Example I-57] | 100 | 100 | 100 | 100 | 90 | 90 | – | – | – | – | – | – | 100 | 90 | 90 | 90 | 90 | – | –

Source: US20240174618A1, “SUBSTITUTED (2-HETEROARYLOXYPHENYL)SULFONATES, SALTS THEREOF AND THEIR USE AS HERBICIDAL AGENTS” (Bayer Aktiengesellschaft, priority 2021, published 2024)
